Assays:
PRMT5 [1] = target: T1, PRMT5 (Homo sapiens, UniProt O14744); test: PRMT5 biochemical IC50 assay with SAM as cofactor; details: PRMT5, SAM as cofactor; read-out: SAM IC50
T1 construct: purchased Viva (custom protein)

PRMT5 [2] = target: T1, PRMT5; test: PRMT5 biochemical IC50 assay with no cofactor; details: PRMT5, no cofactor; read-out: No Cofactor/rel IC50
From the text: Table 1 indicates IC50 values (μM) against PRMT5 for exemplary compounds in the presence of SAM as cofactor, with no cofactor, and with MTA as cofactor, respectively (columns 4-6). […] Ki values can be calculated from the IC50 values as described in the Examples section. As detailed in the Examples section, for the assay performed in the presence of SAM, IC50=Ki×1.5 (Ki=IC50/1.5).

PRMT5 [3] = target: T1, PRMT5; test: PRMT5 biochemical IC50 assay with MTA as cofactor; details: PRMT5, MTA as cofactor; read-out: MTA IC50
[4] = tested on: HAP1 MTAP-intact cell line; test: SDMA in-cell western assay, HAP1 MTAP-intact; type: cell-based; details: Homo sapiens, HAP1, SDMA in-cell western, HAP1 MTAP-intact; read-out: MTAP HAP1 intact IC50
Procedure, shortened: (§1)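 IC50 values come from SDMA signal quantified by in-cell western in two HAP1 lines, one with native MTAP levels and one lacking MTAP.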

[5] = tested on: HAP1 MTAP-deleted cell line; test: SDMA in-cell western assay, HAP1 MTAP-deleted; type: cell-based; details: for IC50: Homo sapiens, HAP1, SDMA in-cell western, HAP1 MTAP-deleted, read-out: HAP 1 MTAP deleted IC50; for MTAP intact/deleted ratio: IC50 ratio HAP1 MTAP-intact / HAP1 MTAP-deleted, SDMA in-cell western
Procedure, shortened: as §1

[6] = tested on: HAP1 MTAP-deleted cell line; test: Viability assay, MTAP-deleted cell line; type: cell-based; details: Homo sapiens, HAP1, viability IC50, MTAP-deleted cell line; read-out: HAP1 MTAP deleted viability
From the text: Table 1 additionally indicates IC50 values in a viability assay for the MTAP-deleted cell line (column 10), indicating the effect of treatment with compound on cell survival.

T1 sequence (O14744 whole entry): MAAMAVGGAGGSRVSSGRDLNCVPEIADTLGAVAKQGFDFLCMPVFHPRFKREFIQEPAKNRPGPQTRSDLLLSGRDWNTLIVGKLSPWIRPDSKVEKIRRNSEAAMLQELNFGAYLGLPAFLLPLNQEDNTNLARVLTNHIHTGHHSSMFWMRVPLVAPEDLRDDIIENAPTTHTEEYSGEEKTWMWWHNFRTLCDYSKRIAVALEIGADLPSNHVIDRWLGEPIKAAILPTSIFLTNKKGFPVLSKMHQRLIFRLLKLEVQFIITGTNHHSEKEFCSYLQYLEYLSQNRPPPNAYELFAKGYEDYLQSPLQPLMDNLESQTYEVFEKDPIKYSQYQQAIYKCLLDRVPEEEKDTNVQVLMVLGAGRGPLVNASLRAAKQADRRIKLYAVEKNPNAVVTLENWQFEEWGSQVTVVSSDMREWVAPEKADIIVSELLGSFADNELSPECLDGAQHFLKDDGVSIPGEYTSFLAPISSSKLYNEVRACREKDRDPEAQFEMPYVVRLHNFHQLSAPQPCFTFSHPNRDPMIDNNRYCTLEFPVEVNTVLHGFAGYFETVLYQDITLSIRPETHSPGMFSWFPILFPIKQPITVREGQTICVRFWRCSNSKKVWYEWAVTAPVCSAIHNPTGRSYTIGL
T1 sequence (Q9BQA1 whole entry partner): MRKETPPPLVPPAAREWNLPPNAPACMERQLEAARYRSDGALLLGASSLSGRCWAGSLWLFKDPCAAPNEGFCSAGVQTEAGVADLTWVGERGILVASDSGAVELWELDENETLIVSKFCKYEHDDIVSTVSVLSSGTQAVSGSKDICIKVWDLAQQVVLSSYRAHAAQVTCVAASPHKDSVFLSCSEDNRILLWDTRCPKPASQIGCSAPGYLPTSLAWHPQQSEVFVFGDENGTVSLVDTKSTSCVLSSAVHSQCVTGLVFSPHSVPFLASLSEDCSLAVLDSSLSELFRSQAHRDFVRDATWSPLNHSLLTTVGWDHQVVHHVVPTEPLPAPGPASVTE

Structure (SMILES)	IC50 (PRMT5 [1]) [nM]	IC50 (PRMT5 [2]) [nM]	IC50 (PRMT5 [3]) [nM]	IC50 [4] [nM]	IC50 [5] [nM]	IC50 [6] [nM]	MTAP intact/deleted ratio [5]
Cc1cc(NC(=O)C(=O)N2C[C@H](C)CC[C@H]2c2ccc3c(c2)CCC(=O)N3)cnc1C(F)F (racemic) [Compound 641, N-[6-(Difluoromethyl)-5-methyl-3-pyridyl]-2-[(2S,5R)-5-methyl-2-(2-oxo-3,4-dihydro-1H-quinolin-6-yl)-1-piperidyl]-2-oxo-acetamide]	50 to 500	50 to 500	50 to 500	> 1000	100 to 1000	1000 to 10000	
Cc1cc(NC(=O)C(=O)N2C[C@H](C)CC[C@H]2c2ccc(C(N)=O)s2)cnc1N (racemic) [Compound 644, 5-[(2S,5R)-1-[2-[(6-amino-5-methyl-3-pyridyl)amino]-2-oxo-acetyl]-5-methyl-2-piperidyl]thiophene-2-carboxamide]	50 to 500	50 to 500	50 to 500	100 to 1000	< 100	< 1000	A (an IC50 ratio greater than or equal to 10 fold)
Cc1cc(NC(=O)C(=O)N2C[C@H](C)CC[C@H]2c2cccc(S(C)(=O)=O)c2)cnc1C (racemic) [Compound 648, N-(5,6-dimethyl-3-pyridyl)-2-[(2R,5S)-5-methyl-2-(3-methylsulfonylphenyl)-1-piperidyl]-2-oxo-acetamide]	50 to 500	50 to 500	50 to 500	> 1000	> 1000	> 10000	B (an IC50 ratio greater than or equal to 3 fold but lower than 10 fold)
Cc1cc(NC(=O)C(=O)N2C[C@H](C)CC[C@H]2c2ccc(S(C)(=O)=O)cc2)cnc1C (racemic) [Compound 649, N-(5,6-dimethyl-3-pyridyl)-2-[(2R,5S)-5-methyl-2-(4-methylsulfonylphenyl)-1-piperidyl]-2-oxo-acetamide]	> 500	50 to 500	50 to 500	> 1000	> 1000	> 10000	B (an IC50 ratio greater than or equal to 3 fold but lower than 10 fold)
C[C@@H]1CC[C@@H](c2ccc(S(N)(=O)=O)cc2)N(C(=O)C(=O)Nc2cncc(C(N)=O)c2)C1 (racemic) [Compound 651, rac 5-[[2-[(2S,5R)-5-methyl-2-(4-sulfamoylphenyl)-1-piperidyl]-2-oxo-acetyl]amino]pyridine-3-carboxamide]	50 to 500	50 to 500	50 to 500	> 1000	> 1000	> 10000	C (an IC50 ratio of less than 3 fold)
CNS(=O)(=O)c1ccc([C@@H]2CC[C@@H](C)CN2C(=O)C(=O)Nc2cncc(C(N)=O)c2)cc1 (racemic) [Compound 652, rac 5-[[2-[(2S,5R)-5-methyl-2-[4-(methylsulfamoyl)phenyl]-1-piperidyl]-2-oxo-acetyl]amino]pyridine-3-carboxamide]	50 to 500	50 to 500	50 to 500	> 1000	> 1000	> 10000	C (an IC50 ratio of less than 3 fold)
C[C@@H]1CC[C@@H](c2cccc(S(N)(=O)=O)c2)N(C(=O)C(=O)Nc2cncc(C(N)=O)c2)C1 (racemic) [Compound 661, 5-(2-(5-methyl-2-(3-sulfamoylphenyl)piperidin-1-yl)-2-oxoacetamido)nicotinamide]	50 to 500	50 to 500	< 50	> 1000	> 1000	> 10000	B (an IC50 ratio greater than or equal to 3 fold but lower than 10 fold)
Cc1cc(NC(=O)C(=O)N2C[C@H](C)CC[C@H]2c2ccc(S(N)(=O)=O)cc2)cnc1N (racemic) [Compound 662, N-(6-amino-5-methyl-3-pyridyl)-2-[(2S,5R)-5-methyl-2-(4-sulfamoylphenyl)-1-piperidyl]-2-oxo-acetamide]	50 to 500	50 to 500	50 to 500	> 1000	100 to 1000	> 10000	A (an IC50 ratio greater than or equal to 10 fold)
C[C@@H]1CC[C@@H](c2ccccc2C#N)N(C(=O)C(=O)Nc2cncc(C(N)=O)c2)C1 (racemic) [Compound 664, 5-[[2-[(2R,5S)-2-(2-Cyanophenyl)-5-methyl-1-piperidyl]-2-oxo-acetyl]amino]pyridine-3-carboxamide]	> 500	> 500	50 to 500	> 1000	> 1000	> 10000	B (an IC50 ratio greater than or equal to 3 fold but lower than 10 fold)

Further lines, with some results ahead:

IC50 (PRMT5 [1]) [nM]	IC50 (PRMT5 [2]) [nM]	IC50 (PRMT5 [3]) [nM]	IC50 [4] [nM]	IC50 [5] [nM]	Structure (SMILES)	IC50 [6] [nM]	MTAP intact/deleted ratio [5]
50 to 500	50 to 500	50 to 500	> 1000	< 100	CCc1cc([C@@H]2CC[C@@H](C)CN2C(=O)C(=O)Nc2cncc(C(N)=O)c2)ccc1O (racemic) [Compound 642, 5-[[2-[(2R,5S)-2-(3-Ethyl-4-hydroxy-phenyl)-5-methyl-1-piperidyl]-2-oxo-acetyl]amino]pyridine-3-carboxamide]	< 1000	A (an IC50 ratio greater than or equal to 10 fold)
50 to 500	50 to 500	50 to 500	> 1000	100 to 1000	Cc1cc(NC(=O)C(=O)N2C[C@H](C)CC[C@H]2c2ccc(S(C)(=O)=O)cc2)cnc1N (racemic) [Compound 643, N-(6-amino-5-methyl-3-pyridyl)-2-[(2R,5S)-5-methyl-2-(4-methylsulfonylphenyl)-1-piperidyl]-2-oxo-acetamide]	1000 to 10000	C (an IC50 ratio of less than 3 fold)
50 to 500	50 to 500	50 to 500	> 1000	100 to 1000	Cc1cc(NC(=O)C(=O)N2C[C@H](C)CC[C@H]2c2ccc(N)cn2)cnc1N (racemic) [Compound 658, N-(6-amino-5-methyl-3-pyridyl)-2-[2-(5-amino-2-pyridyl)-5-methyl-1-piperidyl]-2-oxo-acetamide]	> 10000	A (an IC50 ratio greater than or equal to 10 fold)
50 to 500	50 to 500	< 50	> 1000	> 1000	CNS(=O)(=O)c1cccc([C@@H]2CC[C@@H](C)CN2C(=O)C(=O)Nc2cncc(C(N)=O)c2)c1 (racemic) [Compound 666, 5-[[2-[(2S,5R)-5-methyl-2-[3-(methylsulfamoyl)phenyl]-1-piperidyl]-2-oxo-acetyl]amino]pyridine-3-carboxamide]	> 10000	
50 to 500	50 to 500	50 to 500	> 1000	100 to 1000	Cc1cc(NC(=O)C(=O)N2C[C@H](C)CC[C@H]2c2cccc(S(C)(=O)=O)c2)cnc1N (racemic) [Compound 667, N-(6-amino-5-methyl-3-pyridyl)-2-[(2R,5S)-5-methyl-2-(3-methylsulfonylphenyl)-1-piperidyl]-2-oxo-acetamide]	1000 to 10000	A (an IC50 ratio greater than or equal to 10 fold)
50 to 500	50 to 500	< 50	100 to 1000	100 to 1000	CNS(=O)(=O)c1ccc([C@@H]2CC[C@@H](C)CN2C(=O)C(=O)Nc2cnc(N)c(C)c2)cc1 (racemic) [Compound 668, N-(6-amino-5-methyl-3-pyridyl)-2-[(2S,5R)-5-methyl-2-[4-(methylsulfamoyl)phenyl]-1-piperidyl]-2-oxo-acetamide]	1000 to 10000	B (an IC50 ratio greater than or equal to 3 fold but lower than 10 fold)
> 500	> 500	50 to 500	> 1000	> 1000	NC(=O)c1cncc(NC(=O)C(=O)N2C[C@H](c3cc[nH]n3)CC[C@H]2c2ccccc2)c1 (racemic) [Compound 669, rac-5-(2-oxo-2-((2R,5S)-2-phenyl-5-(1H-pyrazol-5-yl)piperidin-1-yl)acetamido)nicotinamide]	> 10000	C (an IC50 ratio of less than 3 fold)
50 to 500	50 to 500	< 50	> 1000	100 to 1000	C[C@@H]1CC[C@@H](c2ccc3[nH]c(=O)ccc3c2)N(C(=O)C(=O)Nc2cncc(C(N)=O)c2)C1 (racemic) [Compound 670, rac-5-(2-((2R,5S)-5-Methyl-2-(2-oxo-1,2-dihydroquinolin-6-yl)piperidin-1-yl)-2-oxoacetamido)nicotinamide]	1000 to 10000	A (an IC50 ratio greater than or equal to 10 fold)
